Laboratory results reported in patent US6239171A, “Tocotrienols and tocotrienol-like compounds and methods for their use” (Lipogenics, Inc., priority 1998, dated 2001).

How the values were obtained:
[1] = tested on: chickens; experiment: Plasma thromboxane B2 and platelet factor 4 in chickens fed supplemented diets; type: in vivo, chicken; details: control diet + 50 ppm, 4 weeks
Description: We next measured the effects of TRF and its components on serum levels of apolipoprotein (a)1, apolipoprotein B, triglycerides and glucose and the plasma levels of thromboxane B2 and platelet factor 4.

[2] = molecular target: T1, Fatty Acid Synthase (Gallus gallus, UniProt P12276); experiment: Fatty acid synthase activity in isolated chicken hepatocytes; type: cell-based
T1 construct: hepatocytes isolated from livers of 8-week old female chickens; endogenous in cells; host or cells: primary chicken hepatocytes
T1 sequence (P12276 2-2512 limits assumed): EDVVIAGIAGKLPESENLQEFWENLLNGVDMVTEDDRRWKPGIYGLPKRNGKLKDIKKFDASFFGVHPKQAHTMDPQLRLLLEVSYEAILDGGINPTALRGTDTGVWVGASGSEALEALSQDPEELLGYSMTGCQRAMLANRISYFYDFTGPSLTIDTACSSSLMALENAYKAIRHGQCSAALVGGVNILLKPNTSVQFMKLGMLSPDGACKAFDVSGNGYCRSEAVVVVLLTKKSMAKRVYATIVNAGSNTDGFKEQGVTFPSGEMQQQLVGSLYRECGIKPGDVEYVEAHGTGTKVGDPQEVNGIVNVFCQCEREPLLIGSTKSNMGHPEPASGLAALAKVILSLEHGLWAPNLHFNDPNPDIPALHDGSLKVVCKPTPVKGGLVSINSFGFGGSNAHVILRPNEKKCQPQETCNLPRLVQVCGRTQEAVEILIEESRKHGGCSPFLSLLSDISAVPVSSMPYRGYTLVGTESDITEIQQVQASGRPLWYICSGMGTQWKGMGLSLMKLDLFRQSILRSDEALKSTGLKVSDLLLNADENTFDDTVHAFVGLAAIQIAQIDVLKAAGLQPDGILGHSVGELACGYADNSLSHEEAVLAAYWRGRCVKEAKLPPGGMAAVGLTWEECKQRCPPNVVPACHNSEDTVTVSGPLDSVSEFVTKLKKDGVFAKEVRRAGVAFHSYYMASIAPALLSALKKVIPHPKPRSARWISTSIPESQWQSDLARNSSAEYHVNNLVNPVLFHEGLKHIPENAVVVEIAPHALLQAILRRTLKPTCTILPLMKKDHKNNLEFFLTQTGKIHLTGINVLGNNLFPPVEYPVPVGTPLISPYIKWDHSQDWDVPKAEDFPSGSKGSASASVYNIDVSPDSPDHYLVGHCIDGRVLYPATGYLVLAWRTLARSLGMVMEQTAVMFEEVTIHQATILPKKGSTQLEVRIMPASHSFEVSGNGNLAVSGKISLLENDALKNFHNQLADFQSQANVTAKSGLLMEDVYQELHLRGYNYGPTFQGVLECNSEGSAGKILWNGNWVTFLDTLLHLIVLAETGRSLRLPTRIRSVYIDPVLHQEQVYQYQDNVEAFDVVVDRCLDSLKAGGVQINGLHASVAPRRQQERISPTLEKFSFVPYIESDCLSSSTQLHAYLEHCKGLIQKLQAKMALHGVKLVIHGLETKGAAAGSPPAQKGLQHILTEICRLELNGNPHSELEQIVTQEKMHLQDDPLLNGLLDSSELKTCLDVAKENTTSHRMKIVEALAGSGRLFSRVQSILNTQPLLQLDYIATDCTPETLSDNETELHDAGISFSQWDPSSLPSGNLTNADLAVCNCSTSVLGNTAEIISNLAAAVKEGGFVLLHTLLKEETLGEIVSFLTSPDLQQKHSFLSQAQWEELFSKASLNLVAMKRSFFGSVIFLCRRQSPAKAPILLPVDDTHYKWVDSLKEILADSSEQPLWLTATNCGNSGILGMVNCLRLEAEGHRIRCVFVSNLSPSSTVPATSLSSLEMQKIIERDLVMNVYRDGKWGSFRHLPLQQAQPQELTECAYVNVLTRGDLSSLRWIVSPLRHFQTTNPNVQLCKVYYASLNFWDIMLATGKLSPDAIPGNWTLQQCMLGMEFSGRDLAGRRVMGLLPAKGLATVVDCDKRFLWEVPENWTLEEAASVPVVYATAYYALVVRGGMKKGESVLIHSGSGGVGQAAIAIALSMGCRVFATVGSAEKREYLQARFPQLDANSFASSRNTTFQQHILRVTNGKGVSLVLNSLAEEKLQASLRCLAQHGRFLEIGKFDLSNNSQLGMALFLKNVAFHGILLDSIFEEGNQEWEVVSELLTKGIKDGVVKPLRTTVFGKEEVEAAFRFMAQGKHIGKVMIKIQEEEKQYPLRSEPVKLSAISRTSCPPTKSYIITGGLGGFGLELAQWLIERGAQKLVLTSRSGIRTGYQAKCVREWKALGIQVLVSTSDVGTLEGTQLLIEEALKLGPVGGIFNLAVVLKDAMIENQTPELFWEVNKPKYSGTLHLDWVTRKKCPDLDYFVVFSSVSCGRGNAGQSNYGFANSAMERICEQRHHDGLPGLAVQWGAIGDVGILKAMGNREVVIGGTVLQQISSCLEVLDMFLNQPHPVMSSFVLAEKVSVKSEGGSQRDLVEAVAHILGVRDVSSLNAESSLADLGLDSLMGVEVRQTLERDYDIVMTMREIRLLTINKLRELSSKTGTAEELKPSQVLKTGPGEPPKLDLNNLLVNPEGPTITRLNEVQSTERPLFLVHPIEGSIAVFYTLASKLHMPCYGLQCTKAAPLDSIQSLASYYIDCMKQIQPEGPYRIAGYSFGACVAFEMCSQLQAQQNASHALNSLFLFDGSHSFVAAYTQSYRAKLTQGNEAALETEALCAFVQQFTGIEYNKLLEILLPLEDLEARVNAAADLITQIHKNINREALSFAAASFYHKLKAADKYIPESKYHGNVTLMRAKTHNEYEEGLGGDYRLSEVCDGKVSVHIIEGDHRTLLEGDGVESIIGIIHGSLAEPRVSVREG
Experimental: (§1) This study measured the effects of three tocotrienols isolated from rice bran on cholesterol-related enzyme activity in hepatocytes isolated from livers of 8-week old female chickens. The chickens were fed the chick mash diet for 8 weeks. They were then fasted for 40 hours and finally refed for 48 hours before sacrifice. The hepatocytes were then prepared following standard methods.
(§2) Each compound was isolated from TRF using the following protocol: A bond Elute amine column was equilibrated with 2 ml hexane. 10 mg of TRF (dissolved in 0.5 ml hexane) was bound to the amine column. The column was washed with 1 ml of hexane, then with 1 ml of 3% isopropanol in hexane. P-21 and P-25 were eluted off the column with 5% isopropanol in hexane. Then using 10% isopropanol in hexane, the impurity P-20 was eluted. α-tocotrienol was also tested.

[3] = molecular target: T2, HMG-CoA reductase (Homo sapiens, UniProt P04035); experiment: HMG-CoA reductase activity in isolated chicken hepatocytes; type: cell-based
T2 construct: hepatocytes isolated from livers of 8-week old female chickens; endogenous in cells; host or cells: primary chicken hepatocytes
T2 sequence (P04035 1-888): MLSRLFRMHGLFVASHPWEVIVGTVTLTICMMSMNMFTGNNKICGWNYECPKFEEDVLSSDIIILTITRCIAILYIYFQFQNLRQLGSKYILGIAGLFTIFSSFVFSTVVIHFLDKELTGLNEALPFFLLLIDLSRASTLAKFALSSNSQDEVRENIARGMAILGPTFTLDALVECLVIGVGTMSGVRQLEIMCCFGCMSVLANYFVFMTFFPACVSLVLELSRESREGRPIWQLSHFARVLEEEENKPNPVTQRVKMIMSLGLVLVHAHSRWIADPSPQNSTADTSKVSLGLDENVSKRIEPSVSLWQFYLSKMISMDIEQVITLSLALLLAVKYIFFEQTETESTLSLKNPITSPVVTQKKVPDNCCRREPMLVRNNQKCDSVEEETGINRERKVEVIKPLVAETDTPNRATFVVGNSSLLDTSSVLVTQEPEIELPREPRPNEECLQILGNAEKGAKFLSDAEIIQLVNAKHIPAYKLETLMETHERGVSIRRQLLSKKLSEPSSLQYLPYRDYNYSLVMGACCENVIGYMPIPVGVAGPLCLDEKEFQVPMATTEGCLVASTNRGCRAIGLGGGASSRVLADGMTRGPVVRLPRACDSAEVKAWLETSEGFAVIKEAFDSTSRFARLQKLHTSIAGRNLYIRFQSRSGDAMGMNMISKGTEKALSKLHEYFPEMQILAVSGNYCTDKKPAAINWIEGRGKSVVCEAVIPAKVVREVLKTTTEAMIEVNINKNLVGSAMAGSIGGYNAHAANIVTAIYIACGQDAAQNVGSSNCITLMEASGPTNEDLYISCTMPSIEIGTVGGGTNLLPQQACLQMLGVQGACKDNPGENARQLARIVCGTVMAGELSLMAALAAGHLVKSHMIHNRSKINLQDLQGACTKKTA
Experimental: as §1, §2
We next measured the effects of various tocotrienols and tocotrienol-like compounds isolated from rice bran on the activity of HMG-CoA reductase. 20.0 g of stabilized rice bran was extracted with 200.0 ml of methanol to remove various UV absorbing impurities and tocotrienols (6.7 mg total). This step was repeated four times. The remaining residue was dried under vacuum in a desiccator and then heated at 180° C. for 2 hours under 30 psi pressure. Then the dried residue was extracted again with 200.0 ml methanol (3.4 mg). […]

[4] = tested on: chickens; experiment: Antibody titers to sheep red blood cells in chickens; type: in vivo, chicken; details: control diet + 50 ppm, 4 weeks, sheep red blood cells i.p.
Experimental: The model for this study was 6-week old female white leghorn chickens. Each group of 12 chickens was fed an unsupplemented chicken diet or a control diet supplemented with 50 ppm of a tocotrienol or 100 ppm of a commercially available hypercholesterolemic agent (Geraniol or Lovastatin). […] The chickens were fed over a period of 4 weeks, then the blood was drawn. The antibody response was determined by injecting the chickens i.p. with 0.5 ml of a 5% suspension of sheep red blood cells (RBCs) in PBS (v/v) which were previously washed three times. […] Relative IgG levels were determined by using 2-mercaptoethanol preincubation for 30 min. The relative IgM levels were calculated by subtracting the IgG antibody levels from total antibody levels. All antibody levels are expressed as the log base 2 of the highest titer that was needed to hemagglutinate an equal volume of 0.5% RBC suspension.

[5] = tested on: cholesterol 7α-hydroxylase; experiment: Cholesterol 7α-hydroxylase activity in isolated chicken hepatocytes; type: cell-based
Experimental: as §1, §2

[6] = tested on: cholesterol 7α-hydroxylase; experiment: Hepatic cholesterol 7α-hydroxylase activity in chickens fed supplemented diets; type: in vivo, chicken; details: control diet + 50 ppm, 4 weeks
Experimental: (§3) This example measured the effects of the TRF and its components on the hepatic enzymatic activity of HMG-CoA reductase and cholesterol 7α-hydroxylase. […] The amount of feed consumed ranged from 11.19-11.60 g per chicken and the feeding period was 4 weeks. The birds were fasted for a period of 36 hours and refed for 48 hours prior to sacrifice (at 0800 hours).

[7] = tested on: chickens; experiment: Serum cholesterol, apolipoproteins, triglycerides and glucose in chickens fed supplemented diets; type: in vivo, chicken; details: control diet + 50 ppm, 4 weeks
Description: All assays conducted on chicken or swine serum were done following the protocols described in A. A. Qureshi et al., "Lowering Of Serum Cholesterol In Hypercholesterolemic Humans By Tocotrienols" (Palmvitee), Am. J. Clin. Nutr., 53, pp. 1021S-26S (1991). All enzymatic assays were done following the protocols described in A. A. Qureshi et al., "Effects of Cereals and Culture Filtrate of Trichoderma viride on Lipid Metabolism of Swine", Lipids, 17, pp. 924 (1982). Plasma insulin, glucagon and TNF levels were measured using radioinnumoassay kits from Ventrex Laboratories, Inc. (Portland, Me.), ICN Biomedicals, Inc. (Costa Mesa, Calif.) and Genzyme Corp. (Cambridge, Mass.), respectively. […]
Each group of 6 chickens (6-week old female while leghorn) was administered the chick mash diet described in Example 5, supplemented with one of three different amounts of waxes (sterols), 50 ppm of TRF (prepared as in Example 2) or 5% equivalent of the methanol insoluble fraction Louisiana rice bran oil. […] The birds were fasted for a period of 14 hours prior to sacrifice (at 0800 hours). […]

[8] = molecular target: T2, HMG-CoA reductase; experiment: Hepatic HMG-CoA reductase activity in chickens fed supplemented diets; type: in vivo, chicken; details: control diet + 50 ppm, 4 weeks
Experimental: as §3

## CC(C)=CCC/C(C)=C/CC/C(C)=C/CC[C@]1(C)CCc2c(C)c(O)c(C)c(C)c2O1 [α-T3, α-tocotrienol]
[1]
  Platelet Factor 4: 8.78 ng/mL
  Platelet Factor 4, percentage of control: 67.07%
  Thromboxane B2: 21.63 pg/mL
  Thromboxane B2, percentage of control: 83.71%
[2]; 10.0 μg/mL
  Fatty Acid Synthase: 15.2 nmol/min/mg
  Fatty Acid Synthase, percentage of 0.0 μg/mL: 88.4%
[2]; 20.0 μg/mL
  Fatty Acid Synthase: 14.3 nmol/min/mg
  Fatty Acid Synthase, percentage of 0.0 μg/mL: 83.2%
[2]; 40.0 μg/mL
  Fatty Acid Synthase: 12.4 nmol/min/mg
  Fatty Acid Synthase, percentage of 0.0 μg/mL: 72.1%
[3]
  maximum reduction in activity of HMG-CoA reductase: 37.7%
[4]
  IgG antibody titers in serum: 1.00 Log 2
  IgM antibody titers in serum: 6.60 ± 1.24 Log 2
  Total Ab titers in serum: 7.10 ± 1.51 Log 2
[5]; 10.0 μg/mL
  Cholesterol 7α-hydroxylase: 2.12 pmol/min/mg
  Cholesterol 7α-hydroxylase, percentage of 0.0 μg/mL: 91.8%
[5]; 20.0 μg/mL
  Cholesterol 7α-hydroxylase: 2.27 pmol/min/mg
  Cholesterol 7α-hydroxylase, percentage of 0.0 μg/mL: 98.7%
[5]; 40.0 μg/mL
  Cholesterol 7α-hydroxylase: 2.34 pmol/min/mg
  Cholesterol 7α-hydroxylase, percentage of 0.0 μg/mL: 101.3%
[6]
  Cholesterol 7α-Hydroxylase, percentage of control: 104.60%
  Cholesterol 7α-hydroxylase: 10.69 nmol/min/mg
[7]
  APO A1, percentage of control: 99.43%
  APO A1 in serum: 139.6 mg/100 ml
  APO B in serum: 29.30 mg/100 ml
  APO B, percentage of control: 88.52%
  DL-Cholesterol/Total Cholesterol: 0.61
  DL-Cholesterol/Total Cholesterol, percentage of control: 104.30%
  Glucose in serum: 216.90 mg/100 ml
  Glucose, percentage of control: 96.70%
  HDL-Cholesterol in serum: 80.47 ± 0.67 mg/dL
  HDL-Cholesterol, percentage of control: 96.19%
  HDL-Cholesterol/LDL-Cholesterol: 2.09
  HDL-Cholesterol/LDL-Cholesterol, percentage of control: 110.40%
  LDL-Cholesterol in serum: 47.97 ± 0.56 mg/dL
  LDL-Cholesterol, percentage of control: 87.12%
  Total Cholesterol in serum: 131.71 ± 1.08 mg/dL
  Total Cholesterol, percentage of control: 92.25%
  Triglycerides in serum: 68.04 mg/100 ml
  Triglycerides, percentage of control: 91.91%
[8]
  HMG-CoA Reductase, percentage of control: 89.43%
